Assay results from the supplement of paper PMC4862054.

How the values were obtained:
Details in all cases: incubation time: 72 h
[1] = system: BT-474; experiment: normalised response (% of control), CellTox Green; higher = less cell death (100 = DMSO, 0 = benzethonium chloride kill control)
In short: (§1)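 After 72 h with compound in 384-well plates, breast cancer cell lines seeded as 20 µl suspension were read for CellTox Green fluorescence at 485/520 nm. CellTiter-Glo luminescence was then read after 10 min at room temperature. Compound was present at 5 concentrations in 10-fold steps over a 10,000-fold range set per compound, and plates were normalised to 0.1 % DMSO (100) and a positive kill control (0). Values are normalised signals, each at a single concentration.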

[2] = system: BT-549; experiment: as above
In short: as §1

[3] = system: CAL-120; experiment: as above
In short: as §1

[4] = system: CAL-148; experiment: as above
In short: as §1

[5] = system: CAL-51; experiment: as above
In short: as §1

[6] = system: CAL-85-1; experiment: as above
In short: as §1

[7] = system: DU-4475; experiment: as above
In short: as §1

[8] = system: HCC1143; experiment: as above
In short: as §1

[9] = system: HCC1599; experiment: as above
In short: as §1

[10] = system: HCC1937; experiment: as above
In short: as §1

[11] = system: HDQ-P1; experiment: as above
In short: as §1

[12] = system: Hs578T; experiment: as above
In short: as §1

[13] = system: MCF-10A; experiment: as above
In short: as §1

[14] = system: MDA-MB-231; experiment: as above
In short: as §1

[15] = system: MDA-MB-436; experiment: as above
In short: as §1

[16] = system: MDA-MB-453; experiment: as above
In short: as §1

[17] = system: MDA-MB-468; experiment: as above
In short: as §1

[18] = system: MFM-223; experiment: as above
In short: as §1

[19] = system: BT-474; experiment: normalised response (% of control), CellTiter-Glo; higher = more viable cells (100 = DMSO, 0 = benzethonium chloride kill control)
Protocol: (§2)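 DSRT, 72 h incubation, CellTox Green / CellTiter-Glo readout. Signal is normalised to DMSO and benzethonium chloride controls. Value is the normalised response at the highest dose.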

[20] = system: BT-549; experiment: as above
Protocol: as §2

[21] = system: CAL-120; experiment: as above
Protocol: as §2

[22] = system: CAL-148; experiment: as above
Protocol: as §2

[23] = system: CAL-51; experiment: as above
Protocol: as §2

[24] = system: CAL-85-1; experiment: as above
Protocol: as §2

[25] = system: DU-4475; experiment: as above
Protocol: as §2

[26] = system: HCC1143; experiment: as above
Protocol: as §2

[27] = system: HCC1599; experiment: as above
Protocol: as §2

[28] = system: HCC1937; experiment: as above
Protocol: as §2

[29] = system: HDQ-P1; experiment: as above
Protocol: as §2

[30] = system: Hs578T; experiment: as above
Protocol: as §2

[31] = system: MCF-10A; experiment: as above
Protocol: as §2

[32] = system: MDA-MB-231; experiment: as above
Protocol: as §2

[33] = system: MDA-MB-436; experiment: as above
Protocol: as §2

[34] = system: MDA-MB-453; experiment: as above
Protocol: as §2

[35] = system: MDA-MB-468; experiment: as above
Protocol: as §2

[36] = system: MFM-223; experiment: as above
Protocol: as §2

[37] = system: SK-BR-3; experiment: as above
Protocol: as §2

SMILES	normalised response [1] [%]	normalised response [2] [%]	normalised response [3] [%]	normalised response [4] [%]	normalised response [5] [%]	normalised response [6] [%]	normalised response [7] [%]	normalised response [8] [%]	normalised response [9] [%]	normalised response [10] [%]	normalised response [11] [%]	normalised response [12] [%]	normalised response [13] [%]	normalised response [14] [%]	normalised response [15] [%]	normalised response [16] [%]	normalised response [17] [%]	normalised response [18] [%]	normalised response [19] [%]	normalised response [20] [%]	normalised response [21] [%]	normalised response [22] [%]	normalised response [23] [%]	normalised response [24] [%]	normalised response [25] [%]	normalised response [26] [%]	normalised response [27] [%]	normalised response [28] [%]	normalised response [29] [%]	normalised response [30] [%]	normalised response [31] [%]	normalised response [32] [%]	normalised response [33] [%]	normalised response [34] [%]	normalised response [35] [%]	normalised response [36] [%]	normalised response [37] [%]
CCCC(CCC)C(=O)O [Valproic acid] (1000000 nM)	105	111	111	95.9	98.4	97.4	97	111	93.9	88.4	107	129	119	98.7	106	102	126	99.5	100	106	103	88.4	87.6	96.7	89.9	106	98.2	100	103	99	94.6	98.6	100	81.2	97.8	96.3	99.1
Nc1nccc(-c2c(-c3ccc(F)cc3)ncn2C2CCCCC2)n1 (10000 nM)	103	100	105	99.9	105	71.6	98.6	110	98.1	69.8	95.7	135	11.8	109	92.7	104	114	96	83.6	92.2	107	110	89.2	75.7	91.7	99.7	101	80.2	70.5	99.9	48.5	84.4	96	84.9	70.2	88	71.8
COc1cc(Nc2ncc(F)c(Nc3ccc4c(n3)NC(=O)C(C)(C)O4)n2)cc(OC)c1OC [Tamatinib] (10000 nM)	103	95	100	65.1	83.7	64.4	99	115	106	97	111	104	103	108	94.9	103	-90.8	94.1	95.6	67.4	94.9	109	74.1	97.5	107	101	91.6	97.5	100	102	107	103	95.7	112	71.2	110	109
